Target: T1, protein tyrosine phosphatase-1B (PTP-1B) (Homo sapiens, UniProt P18031)
T1 construct: gene PTPN1; recombinant PTP-1B
T1 sequence (P18031 1-435): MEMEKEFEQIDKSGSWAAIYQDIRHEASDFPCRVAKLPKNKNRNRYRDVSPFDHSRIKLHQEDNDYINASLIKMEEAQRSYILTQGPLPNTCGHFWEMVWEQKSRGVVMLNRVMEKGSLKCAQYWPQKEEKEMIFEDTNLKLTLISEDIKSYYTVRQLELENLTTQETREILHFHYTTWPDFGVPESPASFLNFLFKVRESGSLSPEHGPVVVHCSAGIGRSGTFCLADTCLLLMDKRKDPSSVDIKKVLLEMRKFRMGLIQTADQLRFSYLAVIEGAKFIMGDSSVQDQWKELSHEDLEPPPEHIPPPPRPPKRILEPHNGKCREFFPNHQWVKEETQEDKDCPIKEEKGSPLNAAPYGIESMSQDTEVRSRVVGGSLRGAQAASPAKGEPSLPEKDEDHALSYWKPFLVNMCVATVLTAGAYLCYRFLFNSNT
Experiment: pNPP phosphatase assay with recombinant enzyme, absorbance at […] nm
Type: biochemical

Structure (SMILES): COC(=O)[C@@H]1C[C@@]23C=CCN4CC[C@@]5(c6ccccc6N[C@]15[C@@H]2C)[C@@H]43 [IV, vindolinine]
- pNPP phosphatase assay with recombinant enzyme, absorbance at 405 nm: compounds II–IV demonstrated good protein tyrosine phosphatase-1B (PTP-1B) inhibition activity
